Values of other authors as cited in patent US9707278B2, “Methods of modulating immune responses by modifying Akt3 bioactivity” (Augusta University Research Institute, Inc., priority 2014, dated 2017).
One block for each compound: values may come before it.

Columns and labels:
[1] = human, in vivo
[2] = patients with advanced solid tumors
[3] = test system: 250 other protein kinases
[4] = patients with advanced solid tumors; remark: listed apart in the source
[5] = target: p70S6K (Homo sapiens, UniProt P23443)
[6] = target: PKA (Homo sapiens, UniProt P17612)

p70S6K, sequence (P23443 whole entry): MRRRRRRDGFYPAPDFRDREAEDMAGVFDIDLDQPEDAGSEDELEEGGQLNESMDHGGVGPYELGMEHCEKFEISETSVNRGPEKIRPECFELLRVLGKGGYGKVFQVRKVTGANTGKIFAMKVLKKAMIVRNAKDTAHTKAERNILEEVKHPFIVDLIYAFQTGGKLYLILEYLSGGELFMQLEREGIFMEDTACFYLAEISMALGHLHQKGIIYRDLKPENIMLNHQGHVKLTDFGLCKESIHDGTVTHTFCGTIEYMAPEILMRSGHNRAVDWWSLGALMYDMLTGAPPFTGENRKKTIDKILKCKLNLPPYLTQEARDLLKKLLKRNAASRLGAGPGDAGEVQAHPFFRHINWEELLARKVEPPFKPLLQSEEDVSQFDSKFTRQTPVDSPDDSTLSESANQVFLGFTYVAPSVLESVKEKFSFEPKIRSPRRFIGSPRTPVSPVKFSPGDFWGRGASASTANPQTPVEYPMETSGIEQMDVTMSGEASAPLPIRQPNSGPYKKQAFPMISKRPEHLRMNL

Structure (SMILES): NC1(C(=O)N[C@@H](CCO)c2ccc(Cl)cc2)CCN(c2ncnc3[nH]ccc23)CC1 [AZD5363]
tolerability [1]: generally well tolerated

Structure (SMILES): CC(C)NC[C@@H](C(=O)N1CCN(c2ncnc3c2[C@H](C)C[C@H]3O)CC1)c1ccc(Cl)cc1 [GDC-0068]
single agent maximum tolerated dose [2]: 600 mg

Structure (SMILES): NC1(c2ccc(-c3nc4ccn5c(=O)[nH]nc5c4cc3-c3ccccc3)cc2)CCC1 [MK-2206 2HCl]
inhibitory activities against 250 other protein kinases [3]: no inhibitory activities

Structure (SMILES): NC1(c2ccc(-c3nc4ccn5c(=O)[nH]nc5c4cc3-c3ccccc3)cc2)CCC1 [MK-2206]
dose-limiting toxicities ([4]; 30, 60, 75, or 90 mg on alternate days): skin rash and stomatitis
MTD ([4]; oral, alternate days): 60 mg

IC50 [5]: 85 nM
IC50 [6]: 20 nM
Structure (SMILES): Clc1ccc(C2(c3ccc(-c4cn[nH]c4)cc3)CCNCC2)cc1 [AT7867]
